Measured values: ChEMBL document CHEMBL4350985, “1,3-Dioxane as a scaffold for potent and selective 5-HT1AR agonist with in-vivo anxiolytic, anti-depressant and anti-nociceptive activity” (Eur J Med Chem, 2019)
Calls of active or inactive are those of the source. The rule behind the calls is not given here.

Experiments:
[1] = Tmax in Sprague-Dawley rat plasma at 10 mg/kg, po measured upto 480 mins by LC/MS-MS analysis; assay type: ADME, organism-based
[2] = AUC (0 to t) in Sprague-Dawley rat brain at 10 mg/kg, po measured upto 480 mins by LC/MS-MS analysis; assay type: ADME, organism-based; conditions: in vivo, 8 h
[3] = tested on: SH-SY5Y; assay: Neuroprotective activity against H2O2-induced cell death in human SH-SY5Y cells at 0.1 uM incubated for 24 hrs by MTT assay; assay type: functional
[4] = tested on: Rattus norvegicus; assay: Anxiolytic activity in at Sprague-Dawley rat assessed as increase in number of entries into central area of open field at 10 mg/kg, po by open field test; assay type: functional, organism-based
[5] = tested on: SH-SY5Y; assay: Neuroprotective activity against oligomycin A-induced cell death in human SH-SY5Y cells at 1 uM incubated for 24 hrs by MTT assay; assay type: functional
[6] = tested on: SH-SY5Y; assay: Neuroprotective activity against H2O2-induced cell death in human SH-SY5Y cells at 1 uM incubated for 24 hrs by MTT assay; assay type: functional
[7] = Cmax in Sprague-Dawley rat brain at 10 mg/kg, po measured upto 480 mins by LC/MS-MS analysis; assay type: ADME, organism-based; set-up: dose 10 mg/kg, route oral; conditions: in vivo, 8 h
[8] = tested on: Rattus norvegicus; assay: Antidepressant activity in Sprague-Dawley rat assessed as time spent on climbing at 5 to 20 mg/kg, po by forced swim test; assay type: functional, organism-based
[9] = tested on: Rattus norvegicus; assay: Effect on locomotory activity in Sprague-Dawley rat assessed as distance travelled at 10 mg/kg, po by open field test; assay type: functional, organism-based
[10] = Cmax in Sprague-Dawley rat plasma at 10 mg/kg, po measured upto 480 mins by LC/MS-MS analysis; assay type: ADME, organism-based; set-up: dose 10 mg/kg, route oral
[11] = species on record: Homo sapiens; assay: Selectivity ratio of pKi for human cloned 5HT-1AR transfected in HeLa cells to pKi for human cloned adrenoceptor alpha 1D expressed in CHO cell membrane; assay type: cell-based
[12] = Ratio of compound t1/2 to 8-OH-DPAT t1/2 in Sprague-Dawley rat plasma at 10 mg/kg, po measured upto 480 mins by LC/MS-MS analysis; assay type: ADME, organism-based; conditions: in vivo, 8 h
[13] = Ratio of drug level in brain to plasma in Sprague-Dawley rat at 10 mg/kg, po measured upto 480 mins by LC/MS-MS analysis; assay type: ADME, organism-based; conditions: read-out: BPR
[14] = tested on: Rattus norvegicus; assay: Antidepressant activity in Sprague-Dawley rat assessed as increase in time spent in swimming at 10 and 20 mg/kg, po by forced swim test; assay type: functional, organism-based
[15] = tested on: Rattus norvegicus; assay: Anxiolytic activity at Sprague-Dawley rat assessed as decrease in time spent in closed arm at 5 to 20 mg/kg, po by EPM test; assay type: functional, organism-based
[16] = Tmax in Sprague-Dawley rat brain at 10 mg/kg, po measured upto 480 mins by LC/MS-MS analysis; assay type: ADME, organism-based

Question: Which Tmax [1] does the source give for `COc1ccccc1OCCNCC1COC(c2ccccc2)(c2ccccc2)OC1.O=C(O)C(=O)O` here?
Answer: 30 min

Question: What about the AUCt [2] of the same compound?
Answer: 7167.6 nmol·min/g

Question: And the Activity [3]?
Answer: 89%

Question: What about the Activity [4] of the same compound?
Answer: Active

Question: And the Activity [5]?
Answer: 83%

Question: What about the Activity [6] of the same compound?
Answer: 79%

Question: What about the Cmax [7] of the same compound?
Answer: 157.9 nmol/g

Question: What about the Activity [8] of the same compound?
Answer: inactive

Question: What about the Activity [9] of the same compound?
Answer: inactive

Question: And the Cmax [10]?
Answer: 95 nM

Question: And the Ratio pKi [11]?
Answer: 16

Question: And the Ratio [12]?
Answer: 3

Question: And the Kp at 8 h [13]?
Answer: 420

Question: What about the Activity [14] of the same compound?
Answer: Active

Question: What about the inhibition [15] of the same compound?
Answer: Active

Question: And the Tmax [16]?
Answer: 60 min
